# Target: T1, GBA2 (Homo sapiens, UniProt Q9HCG7)
# T1 sequence (Q9HCG7 1-927): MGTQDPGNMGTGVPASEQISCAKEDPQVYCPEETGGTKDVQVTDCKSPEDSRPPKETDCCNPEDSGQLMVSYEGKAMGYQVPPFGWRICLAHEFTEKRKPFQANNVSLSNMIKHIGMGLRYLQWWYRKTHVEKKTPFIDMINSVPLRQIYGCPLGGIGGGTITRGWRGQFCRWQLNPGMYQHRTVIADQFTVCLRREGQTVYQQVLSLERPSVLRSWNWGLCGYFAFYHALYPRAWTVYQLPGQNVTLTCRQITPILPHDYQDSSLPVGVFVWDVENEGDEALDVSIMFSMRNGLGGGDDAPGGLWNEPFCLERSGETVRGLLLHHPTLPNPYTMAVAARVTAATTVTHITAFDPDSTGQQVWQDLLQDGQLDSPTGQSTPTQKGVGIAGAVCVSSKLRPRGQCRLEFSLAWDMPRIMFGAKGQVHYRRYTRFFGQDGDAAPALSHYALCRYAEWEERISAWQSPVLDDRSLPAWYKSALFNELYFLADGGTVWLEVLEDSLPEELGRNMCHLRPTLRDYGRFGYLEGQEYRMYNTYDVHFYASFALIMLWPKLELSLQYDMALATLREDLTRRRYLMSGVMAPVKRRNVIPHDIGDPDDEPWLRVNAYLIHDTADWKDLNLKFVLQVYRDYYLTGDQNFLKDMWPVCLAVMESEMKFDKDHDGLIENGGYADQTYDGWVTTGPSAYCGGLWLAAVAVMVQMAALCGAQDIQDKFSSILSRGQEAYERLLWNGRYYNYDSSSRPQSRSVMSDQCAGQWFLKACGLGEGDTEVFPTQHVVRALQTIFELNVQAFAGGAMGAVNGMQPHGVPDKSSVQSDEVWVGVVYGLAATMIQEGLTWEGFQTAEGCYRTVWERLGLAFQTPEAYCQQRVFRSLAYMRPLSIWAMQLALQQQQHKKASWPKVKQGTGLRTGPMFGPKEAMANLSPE
# Test: In vitro ABP labelling of HEK293T lysates (ABPP, SDS-PAGE fluorescence scanning)
# Format: biochemical
# Set-up: expressed in transfected cells; host or cells: HEK293T GBA1/GBA2 KO (CRISPR/Cas9), GBA2 overexpressed
# Conditions: for Concentration at which GBA2 is selectively labelled: 30 min, pH 6.0
# Method: To this end, lysates of HEK293T cells containing all β-glucosidases (endogenous GBA1 with overexpressed GBA2 and GBA3) were treated with ABPs 3, 4, 5 or 7, followed by protein separation by SDS-PAGE and fluorescence scanning of the wet gel slabs. […] In contrast, the β-D-Araf aziridine ABPs 3 and 4 selectively labelled GBA2 at a concentration of 100 nM, while Cy5 tagged ABP 5 did so at 500 nM. The GBA2 selectivity of β-D-Araf cyclitol aziridines 3, 4 and 5 was confirmed in a mixture of a lysate of overexpressed GBA2 cells spiked with 3 ng rhGBA1 (Fig. 2C and ESI Fig. S3 ^†). In this experiment, the enzyme mixture was first incubated with β-D-Araf aziridine ABPs 3, 4, or 5 for 30 minutes, after which selective GBA1 ABP 10 [32] or 11 [30] was added to label the remaining active rhGBA1 active site. […] The pH and incubation time dependence labelling of GBA2 in HEK293T cells containing all three retaining β-glucosidases by β-D-Araf ABPs was next investigated (Fig. 2D, E and ESI Fig. S4 ^†). All ABPs selectively label GBA2 at a pH range of 4.5–7.5. Using 500 nM of ABP 4, GBA2 labelling occurred within a minute, and maximal labelling was observed after 20–30 minutes. […] Therefore, only a combined inactivation rate constant (kinact) and binding constant (KI) ratio (kinact/KI) could be measured. […] Importantly, no labelling of GBA1 or GBA3 was detected under varying pH and time conditions (ESI Fig. S4-2 ^†). […]
# 2.6 Visualization of ABP labelling towards β-glucosidases by activity-based protein profiling (ABPP) with SDS-PAGE
# β-Glucosidases were labeled with excess of fluorescent ABPs at optimum conditions at 37 °C for 30 min (if not otherwise stated). The total sample volume was 20–40 μL with 0.5–1% DMSO concentration in appropriate pH McIlvaine buffer (150 mM). To label lysates containing all β-glucosidases (GBA1, GBA2 and GBA3), ABP 7 was used at pH 6.0 in McIlvaine buffer. To label lysate only containing GBA2 (GBA1/2 KO and GBA2 OE cell lysate), ABP (3-5, or 7) was incubated at pH 5.8 in McIlvaine buffer was used. To label rhGBA1 (Imiglucerase), ABP (10 or 11) at pH 5.2 in McIlvaine buffer supplemented with 0.1% (v/v) Triton X-100 and 0.2% (w/v) sodium taurocholate were used.
# After incubation with the corresponding ABPs, proteins were denatured by boiling the samples with 5× Laemmli buffer (50% (v/v) 1 M Tris-HCl, pH 6.8, 50% (v/v) 100% glycerol, 10% (w/v) DTT, 10% (w/v) SDS, 0.01% (w/v) bromophenol blue, diluted into 1x for use) for 5 min at 98 °C, and separated by electrophoresis on 10% SDS-PAGE gels run at 90 V for 1.0-1.5 h. Wet slab-gels were imaged using the Typhoon FLA 9500 scanner (GE Healthcare, Eindhoven, The Netherlands) at λEX 473 nm and λEM ≥ 510 nm for BODIPY green fluorescence; at λEX 532 nm and λEM ≥ 575 nm for the BODIPY red fluorescence ; at λEX 635 nm and λEM ≥ 665 nm for Cy5 fluorescence. Afterwards, wet slab-gels were stained by Coomassie brilliant blue (CBB) G250 or R250 for total protein staining and scanned with a ChemiDocTM MP Imaging System (Bio-Rad, Veenendaal, The Netherlands).
# 2.7 Determination of kinetic parameters of ABP 4
# The kinetic parameters of ABP 4 for GBA2 was determined by SDS-PAGE analysis in lysates of HEK293T GBA1/2 knock out GBA2 overexpression cells in which the relative intensity of the band on wet gel slabs (compared to labelling control) was used to calculate the inactivation parameters of GBA2. Lysates were made as previous cell lysis description. […]
# [1] = HEK293T lysate, endogenous GBA1, overexpressed GBA2 and GBA3
SMILES,β-Glucosidases labelled in lysate [1],"Time to maximal GBA2 labelling (500 nM ABP, HEK293T lysate containing all three β-glucosidases) [min]",Concentration at which GBA2 is selectively labelled [1] [nM]
CN1/C(=C/C=C/C=C/C2=[N+](CCCCCC(=O)NCc3cn(CCCCCCCCN4[C@@H]5[C@H](CO)[C@@H](O)[C@H](O)[C@@H](O)[C@@H]54)nn3)c3ccccc3C2(C)C)C(C)(C)c2ccccc21 (some centres unmarked) [ABP 7],labelled all three β-glucosidases,,
COc1ccc(C2=[N+]3C(=C(CCCCc4cn(CCCCCCCCN5[C@@H]6[C@H](CO)[C@@H](O)[C@H](O)[C@@H]65)nn4)c4ccc(-c5ccc(OC)cc5)n4[B-]3(F)F)C=C2)cc1 (some centres unmarked) [ABP 4],,20 to 30,100
CC1=CC(C)=[N+]2C1=C(CCCCc1cn(CCCCCCCCN3[C@@H]4[C@H](CO)[C@@H](O)[C@H](O)[C@@H]43)nn1)c1c(C)cc(C)n1[B-]2(F)F (some centres unmarked) [ABP 3],,,100
CN1/C(=C/C=C/C=C/C2=[N+](CCCCCC(=O)NCc3cn(CCCCCCCCN4[C@@H]5[C@H](CO)[C@@H](O)[C@H](O)[C@@H]54)nn3)c3ccccc3C2(C)C)C(C)(C)c2ccccc21 (some centres unmarked) [ABP 5],,,500

# — PMC11375437, “Selective labelling of GBA2 in cells with fluorescent β-D-arabinofuranosyl cyclitol aziridines” (Chemical Science, 2024)
